Data taken from patent US20230286973A1, “PROTEIN SECRETION INHIBITORS” (KEZAR LIFE SCIENCES, priority 2020, published 2023).
pEC50, pIC50: −log10 of the molar value.

Assays:
[1] = test system: PD1-ss+10aa/Gaussia Luciferase; assay: Dox-Induced PD1-ss-Gluc Assay; type: cell-based; details: 24 hr Dox induction; 293FRT/TO cells; mean; read-out: 24 hr Dox Inducible PD1ssGluc 293FRT/TO: Mean IC50
Outline: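 Compounds were added in DMSO/media with doxycycline and incubated at 37 °C, 5% CO2, on 293 T-REx cells plated one day earlier. These cells stably express, under tetracycline-regulated control, a Gaussia luciferase fused to the PD1 signal peptide plus 10 residues. Structures drawn without stereochemistry were tested as stereoisomer mixtures.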

[2] = test system: TNFα-FL/Gaussia Luciferase; assay: Dox Induced TNFα-FL-Gluc Assay; type: cell-based; details: for pIC50: 24 hr Dox induction, 293FRT/TO cells, mean, read-out: 24 hr Dox Inducible TNFaFLGluc 293FRT/TO: Mean IC50; for 24 hr Dox Inducible TNFaFLGluc 293FRT/TO: TNF/PD1: ratio of TNFaFLGluc IC50 to PD1ssGluc IC50, '<=>' given where both are I.A.
Outline: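 Doxycycline-inducible Gaussia luciferase-tagged full-length TNFα (1-233) was expressed in stable Flp-In 293 T-REx cells. Compounds were co-added with doxycycline and incubated at 37 °C, 5% CO2.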

[3] = test system: HER3-ss+4aa/Gaussia Luciferase; assay: Dox-Induced Her3-ss-Gluc Assay; type: cell-based; details: 24 hr Dox induction; 293FRT/TO cells; mean; read-out: 24 hr Dox Inducible Her3(ss + 4)Gluc 293FRT/TO: Mean IC50
Outline: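 Reporter line: Flp-In 293 T-REx, T-REx-regulated HER3-ss+4aa fused to Gaussia luciferase. Compound co-added with doxycycline after overnight plating, 37° C., 5% CO2.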

[4] = test system: IL-2-FL/Gaussia Luciferase; assay: Dox Induced IL2-FL-Gluc Assay; type: cell-based; details: for pIC50: 24 hr Dox induction, 293FRT/TO cells, mean, read-out: 24 hr Dox Inducible IL2FLGluc 293FRT/TO: Mean IC50; for 24 hr Dox Inducible IL2FLGluc 293FRT/TO: IL2/PD1: ratio of IL2FLGluc IC50 to PD1ssGluc IC50, '<=>' given where both are I.A.
Outline: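 Doxycycline induces an IL-2(1-153)–Gaussia luciferase fusion in a stable Flp-In 293 T-REx line. Compound exposure runs alongside induction at 37° C.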

[5] = test system: multiple myeloma cell line NCI-H929; assay: H929 Cell Viability Assay; type: cell-based, human; details: Homo sapiens, NCI-H929, 48 h, NCI-H929 cells, Celltiter-Glo
Outline: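 Viability is scored by CellTiter-Glo luminescence following a 48-hour treatment at 37° C. Data for structures shown without stereochemistry refer to stereoisomer mixtures.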

[6] = test system: multiple myeloma cell line U266B1; assay: U266 Cell Viability Assay; type: cell-based, human; details: Homo sapiens, U-266, 48 h, U266B1 cells, Celltiter-Glo
Outline: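 Viability is measured as luciferase signal from CellTiter-Glo following a 48-hour incubation with compound at 37° C. under 5% CO2. Where structures lack drawn stereochemistry, values refer to stereoisomer mixtures.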

[7] = Liver Microsome Stability Assay (rat); details: rat liver microsomes, with NADPH, 1.0 uM compound
Description: (§1) Stability of a compound was assessed in the presence of liver microsomes from various sources—mouse, rat, monkey and human liver microsomes. 1.0 uM compound, 0.4% DMSO in 0.1 M Potassium Phosphate with 1.0 mg/mL liver microsomes, were incubated at 37° C. with or without 1 mM NADPH. The samples were quenched at 0, and 30 minutes.

[8] = Liver Microsome Stability Assay (mouse); details: mouse liver microsomes, with NADPH, 1.0 uM compound
Description: as §1

[9] = Liver Microsome Stability Assay (human); details: human liver microsomes, with NADPH, 1.0 uM compound
Description: as §1

[10] = Liver Microsome Stability Assay (monkey); details: monkey liver microsomes, with NADPH, 1.0 uM compound
Description: as §1

SMILES	pIC50 [1]	pIC50 [2]	pIC50 [3]	pIC50 [4]	pEC50 [5]	pEC50 [6]	Liver Microsome Stability (Multiple Species): Rat - % Remaining after 30 min w/NADPH [7]	Liver Microsome Stability (Multiple Species): Mouse - % Remaining after 30 min w/NADPH [8]	Liver Microsome Stability (Multiple Species): Human - % Remaining after 30 min w/NADPH [9]	Liver Microsome Stability (Multiple Species): Monkey - % Remaining after 30 min w/NADPH [10]	24 hr Dox Inducible TNFaFLGluc 293FRT/TO: TNF/PD1 [2]	24 hr Dox Inducible IL2FLGluc 293FRT/TO: IL2/PD1 [4]
N#CCCCn1cccc1C(=O)Nc1nc([C@H]2CCCN2c2ccccc2)cs1 [Compound C2, (R)-1-(3-cyanopropyl)-N-(4-(1-phenylpyrrolidin-2-yl)thiazol-2-yl)-1H-pyrrole-2-carboxamide]	6.32	5.01	5.86	5.82	< 4.60	< 4.60	17.6%	18%	33.9%	0.23%	20.2	3.1
O=C(Nc1nc([C@H]2CCCN2c2ccccc2)cs1)c1cccn1CCC1CCOC1 (stereo partly drawn) [Compound C3, N-(4-((R)-1-phenylpyrrolidin-2-yl)thiazol-2-yl)-1-(2-(tetrahydrofuran-3-yl)ethyl)-1H-pyrrole-2-carboxamide]	5.95	4.82	5.64	5.52	4.79	< 4.60	4.35%	9.29%	16%	8.3%	13.5	2.7
O=C(Nc1nc([C@H]2CCCN2c2ccccc2)cs1)c1cccn1CCCCc1nnn[nH]1 [Compound C4, (R)-1-(4-(1H-tetrazol-5-yl)butyl)-N-(4-(1-phenylpyrrolidin-2-yl)thiazol-2-yl)-1H-pyrrole-2-carboxamide]	6.11	4.78	5.81	5.71	< 4.60	< 4.60	62.1%	49.1%	96.7%	70.3%	21.1	2.5
O=C(Nc1nc([C@H]2CCCN2c2ccccc2)cs1)c1cccn1Cc1ccccc1 [Compound C5, (R)-1-benzyl-N-(4-(1-phenylpyrrolidin-2-yl)thiazol-2-yl)-1H-pyrrole-2-carboxamide]	5.66	< 4.60	5.62	5.54	< 4.60	< 4.60	67.5%	65.6%	87.9%	63%	>11.4	1.3
N#CC1CC1Cn1cccc1C(=O)Nc1nc([C@H]2CCCN2c2ccccc2)cs1 (stereo partly drawn) [Compound C6, 1-((2-cyanocyclopropyl)methyl)-N-(4-((R)-1-phenylpyrrolidin-2-yl)thiazol-2-yl)-1H-pyrrole-2-carboxamide]	5.58	< 4.60	5.28	5.14	4.93	4.82	8.19%	31.1%	32.8%	7.86%	>9.60	2.8
NC(=O)CCCn1cccc1C(=O)Nc1nc([C@H]2CCCN2c2ccccc2)cs1 [Compound C7]	5.43	< 4.60	5.10	< 4.60	< 4.60	< 4.60	27.6%	26.6%	39.7%	10.4%	>6.75	6.8
N#CCC1(Cn2cccc2C(=O)Nc2nc([C@H]3CCCN3c3ccccc3)cs2)CC1 [Compound C8, (R)-1-((1-(cyanomethyl)cyclopropyl)methyl)-N-(4-(1-phenylpyrrolidin-2-yl)thiazol-2-yl)-1H-pyrrole-2-carboxamide]	5.42	< 4.60	5.02	4.65	< 4.60	< 4.60	8.76%	1.66%	5.88%	1.37%	>6.61	5.9

Continued by rising pIC50 [1], values first:

pIC50 [1]	pIC50 [2]	pIC50 [3]	pIC50 [4]	pEC50 [5]	pEC50 [6]	Liver Microsome Stability (Multiple Species): Rat - % Remaining after 30 min w/NADPH [7]	Liver Microsome Stability (Multiple Species): Mouse - % Remaining after 30 min w/NADPH [8]	Liver Microsome Stability (Multiple Species): Human - % Remaining after 30 min w/NADPH [9]	Liver Microsome Stability (Multiple Species): Monkey - % Remaining after 30 min w/NADPH [10]	SMILES	24 hr Dox Inducible TNFaFLGluc 293FRT/TO: TNF/PD1 [2]	24 hr Dox Inducible IL2FLGluc 293FRT/TO: IL2/PD1 [4]
5.34	< 4.60	5.21	5.12	< 4.60	< 4.60	8.24%	0.81%	3.68%	0.38%	N#CCC1(Cn2cccc2C(=O)Nc2nc([C@H]3CCCN3c3ccccc3)cs2)CCC1 [Compound C9, (R)-1-((1-(cyanomethyl)cyclobutyl)methyl)-N-(4-(1-phenylpyrrolidin-2-yl)thiazol-2-yl)-1H-pyrrole-2-carboxamide]	>5.49	1.7
5.57	< 4.60	< 4.60	< 4.60	< 4.60	< 4.60	2.69%	6.6%	0.24%	0.15%	COC(=O)Cn1cnc(/C=C/c2csc(NC(=O)c3cccn3Cc3ccnc(F)c3)n2)c1C [Compound B120, methyl (E)-2-(4-(2-(2-(1-((2-fluoropyridin-4-yl)methyl)-1H-pyrrole-2-carboxamido)thiazol-4-yl)vinyl)-5-methyl-1H-imidazol-1-yl)acetate]	>9.29	>9.3
6.34	5.00	5.88	5.90	4.62	< 4.60	7.64%	23.2%	29.3%	0.35%	N#CCCCCn1cccc1C(=O)Nc1nc([C@H]2CCCN2c2ccccc2)cs1 [Compound C1, (R)-1-(4-cyanobutyl)-N-(4-(1-phenylpyrrolidin-2-yl)thiazol-2-yl)-1H-pyrrole-2-carboxamide]	22.1	2.8
